Read-outs that look alike come from different tables or passages of the source.
Experiments:
[1] = target: T1, GSK3a (GST-full length GSK3a) (Homo sapiens, UniProt P49840); test: GSK3a TR-FRET kinase inhibition assay; format: biochemical
T1 construct: GST-full length GSK3a [SignalChem G08-10G]; purchased SignalChem G08-10G
Procedure: (§1) TR-FRET assay was performed in a white, 384 well, low volume, flat bottom plate (Grenier). After a 30 minute preincubation in assay buffer with the indicated concentration of compound, the kinase activity was initiated by the addition of the substrates. 1 nM GSK3a (GST-full length GSK3a [SignalChem G08-10G]) or 1 nM GSK3b (GST-full length GSK3b: [SignalChem G08-9G]) were then incubated at ambient temperature for 100 minutes in 10 μl of 50 mM Tris, pH 7.5, 20 mM MgCl2, 0.05 mM DTT, 100 μg/ml BSA and 1% DMSO, with 200 nM biotinylated peptide substrate (biotinylated and S645 phosphorylated glycogen synthase 631-650) and ATP (e.g., at 2 μM, 4 μM, 10 μM, 100 μM, or 1 mM). The kinase activity was quenched with 2 μl of 250 mM EDTA. A 10 μl volume of 40 nM Strepavidin-d2, 2 nM […] antibody in TR-FRET Detection Buffer (Invitrogen) was then added. After 60 min at room temperature the plate was read on Envision plate reader using Ex: 340 nm, Em: 615 nm and […]. The normalized 665/615 Signal ratio versus log compound concentration was analyzed by XLFIT to yield IC50 values.

[2] = target: T2, GSK3b (GST-full length GSK3b) (Homo sapiens, UniProt P49841); test: GSK3b TR-FRET kinase inhibition assay; format: biochemical
T2 construct: GST-full length GSK3b: [SignalChem G08-9G]; purchased SignalChem G08-9G
T2 sequence (P49841 whole entry): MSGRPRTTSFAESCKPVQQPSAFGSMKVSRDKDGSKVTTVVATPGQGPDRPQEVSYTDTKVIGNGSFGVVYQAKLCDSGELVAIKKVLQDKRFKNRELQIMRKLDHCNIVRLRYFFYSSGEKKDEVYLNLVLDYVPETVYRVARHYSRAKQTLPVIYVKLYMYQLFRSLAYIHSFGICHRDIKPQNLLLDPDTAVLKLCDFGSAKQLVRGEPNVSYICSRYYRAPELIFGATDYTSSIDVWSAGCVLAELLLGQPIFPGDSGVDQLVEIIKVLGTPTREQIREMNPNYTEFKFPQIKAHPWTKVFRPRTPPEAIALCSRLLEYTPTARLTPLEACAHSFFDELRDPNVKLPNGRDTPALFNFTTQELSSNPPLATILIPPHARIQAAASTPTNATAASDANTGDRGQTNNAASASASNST
Procedure: as §1

[3] = 4 μM ATP, read-out: GSK3α TR-FRET 4 μM ATP GMean IC50
[4] = 2 μM ATP, read-out: GSK3β TR-FRET 2 μM ATP GMean IC50
[5] = 1 mM ATP, Table 5, read-out: GSK3α TR-FRET 1 mM ATP Average IC50
[6] = 1 mM ATP, Table 5, read-out: GSK3β TR-FRET 1 mM ATP Average IC50
[7] = 1 mM ATP, Table 3, read-out: GSK3a TR-FRET 1 mM ATP Average IC50
[8] = 1 mM ATP, Table 3, read-out: GSK3b TR-FRET 1 mM ATP Average IC50

T1 sequence (P49840 whole entry): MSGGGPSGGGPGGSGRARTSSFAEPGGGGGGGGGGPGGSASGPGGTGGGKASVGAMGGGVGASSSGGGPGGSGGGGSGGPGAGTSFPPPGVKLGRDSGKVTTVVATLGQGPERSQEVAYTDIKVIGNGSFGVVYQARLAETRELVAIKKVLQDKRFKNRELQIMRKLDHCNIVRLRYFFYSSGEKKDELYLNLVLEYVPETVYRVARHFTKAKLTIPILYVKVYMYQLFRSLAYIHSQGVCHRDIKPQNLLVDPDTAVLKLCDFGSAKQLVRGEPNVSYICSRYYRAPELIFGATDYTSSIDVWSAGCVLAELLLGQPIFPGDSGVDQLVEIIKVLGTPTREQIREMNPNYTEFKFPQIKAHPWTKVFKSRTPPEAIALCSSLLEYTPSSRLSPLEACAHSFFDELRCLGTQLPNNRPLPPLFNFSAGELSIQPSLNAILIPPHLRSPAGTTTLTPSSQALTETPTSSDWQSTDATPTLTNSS

SMILES | IC50 [1, 5] | IC50 [2, 6] | IC50 [1, 7] | IC50 [2, 8] | other results
CCC1(c2ccccc2)C2=C(CC(C)(C)CC2=O)Nc2ncc(F)cc21 (racemic) [Compound 114] |  |  |  |  | IC50 [1, 3]: ≤ 0.1 µM; IC50 [2, 4]: ≤ 0.1 µM
CC1(C)CC(=O)C2=C(C1)Nc1ncc(I)c(Br)c1C2(C)c1ccccc1 (single isomer, unassigned) [657B] | 5 to 20 µM | 1 to 5 µM |  |  | 
CC1(C)CC(=O)C2=C(C1)Nc1ncc3ccccc3c1C2(C)c1ccccc1 (single isomer, unassigned) [606B] | 1 to 5 µM | 1 to 5 µM |  |  | 
CC1(C)CC(=O)C2=C(C1)Nc1ncc(F)c(C3CC3)c1C2(C)c1ccccc1 (single isomer, unassigned) [Compound 125A] |  |  | 0.1 to 1 µM | 0.1 to 1 µM | 
CC1(C)CC2=C(C(=O)N1)C(C)(c1ccccc1)c1c(ncc(C(F)F)c1C#N)N2 (single isomer, unassigned) [628A] | 1 to 5 µM | 1 to 5 µM |  |  | 
CN1C(=O)C2=C(CC1(C)C)Nc1ncc(C(F)F)c(C#N)c1C2(C)c1ccccc1 (single isomer, unassigned) [632B] | 0.1 to 1 µM | 0.1 to 1 µM |  |  | 
CCC1(c2ccccc2)C2=C(CC(C)(C)CC2=O)Nc2ncc(F)cc21 (single isomer, unassigned) [114 A] |  |  |  |  | IC50 [1, 3]: ≤ 0.1 µM; IC50 ([1]; 1 mM ATP, Table 4, read-out: GSK3α TR-FRET 1 mM ATP GMean IC50): 0.1 to 1 µM; IC50 [2, 4]: ≤ 0.1 µM; IC50 ([2]; 1 mM ATP, Table 4, read-out: GSK3β TR-FRET 1 mM ATP GMean IC50): 1 to 5 µM
CC1(C)CC(=O)C2=C(C1)Nc1ncc(F)c(C#N)c1C2(C)c1cccc(S(C)(=O)=O)c1 (single isomer, unassigned) [Compound 148A] |  |  | ≤ 0.1 µM | ≤ 0.1 µM | 
CCc1cnc2c(c1C#N)C(C)(c1ccccc1)C1=C(CC(C)(C)CC1=O)N2 (single isomer, unassigned) [608B] | 5 to 20 µM | 5 to 20 µM |  |  | 
Cc1cnc2c(c1C)C(C)(c1ccccc1)C1=C(CC(C)(C)CC1=O)N2 (single isomer, unassigned) [601B] | 5 to 20 µM | 5 to 20 µM |  |  | 
CC1(C)CC(=O)C2=C(C1)Nc1ncc(F)cc1C2(C)c1cccc(S(C)(=O)=O)c1 (single isomer, unassigned) [Compound 139B] |  |  | 5 to 20 µM | 5 to 20 µM | 
CC1(C)CC(=O)C2=C(C1)Nc1ncc(C(F)(F)F)c(F)c1C2(C)c1ccccc1 (single isomer, unassigned) [Compound 136A] |  |  | 5 to 20 µM | 5 to 20 µM | 
CC1(C)CC(=O)C2=C(C1)Nc1ncc(C(F)F)c(C#N)c1C2(C)c1ccccc1 (single isomer, unassigned) [627A] | 0.1 to 1 µM | 0.1 to 1 µM |  |  | 
CC1(C)CC(=O)C2=C(C1)Nc1ncccc1C2(C)c1cccc(-c2ccncc2CC(F)(F)F)c1 (single isomer, unassigned) [Compound 163A] |  |  | 0.1 to 1 µM | 0.1 to 1 µM | 
CCc1cnc2c(c1C#N)C(C)(c1ccccc1)C1=C(CC(C)(C)CC1=O)N2 (single isomer, unassigned) [608A] | 1 to 5 µM | 1 to 5 µM |  |  | 
CC1(C)CC(=O)C2=C(C1)Nc1ncc(C(F)(F)F)c(Cl)c1C2(C)c1ccccc1 (single isomer, unassigned) [Compound 141B] |  |  | 1 to 5 µM | 1 to 5 µM | 
CCC1(c2cccc(-c3ccncc3OC)c2)C2=C(CC(C)(C)CC2=O)Nc2ncc(F)cc21 (single isomer, unassigned) [Compound 1037A] |  |  |  |  | IC50 [1, 3]: 1 to 5 µM; IC50 [2, 4]: 1 to 5 µM
C=C(C)c1cnc2c(c1C#N)C(C)(c1ccccc1)C1=C(CC(C)(C)CC1=O)N2 (single isomer, unassigned) [620B] | 5 to 20 µM | 5 to 20 µM |  |  | 
Cn1ncc2c3c(ncc21)NC1=C(C(=O)CC(C)(C)C1)C3(C)c1cccc(S(C)(=O)=O)c1 (single isomer, unassigned) [649A] | 5 to 20 µM | 1 to 5 µM |  |  | 
CC1(C)CC(=O)C2=C(C1)Nc1ncc(F)c(C(F)(F)F)c1C2(C)c1cccc(S(C)(=O)=O)c1 (single isomer, unassigned) [Compound 166B] |  |  | 5 to 20 µM | 5 to 20 µM | 
CC1(C)CC(=O)C2=C(C1)Nc1ncccc1C2(C)c1cccc(-c2ccncc2N2CCCC2)c1 (single isomer, unassigned) [Compound 158A] |  |  | 0.1 to 1 µM | 0.1 to 1 µM | 

Reference: patent US20260103465A1, “GLYCOGEN SYNTHASE KINASE 3 INHIBITORS AND USES THEREOF” (The Broad Institute, Inc., priority 2023, published 2026)
